Experimental data taken from patent publication US20260109699A1, “AZOLE DERIVATIVES AS SHP2 INHIBITORS” (IRBM S.P.A., priority 2022, published 2026).

Tests used:
[1] = molecular target: T1, SHP-2 enzyme (Met1-Leu525), SHP2wt (Homo sapiens, UniProt Q06124); assay: SHP2 inhibition enzymatic assay; assay type: biochemical; settings: 0.5 nM SHP-2 activated by 500 nM IRS1 peptide, 75 μM DiFMUP substrate
T1 construct: synthetized by Origene, Met1-Leu525, cat #TP750155; purchased Origene TP750155
T1 sequence (Q06124 1-525): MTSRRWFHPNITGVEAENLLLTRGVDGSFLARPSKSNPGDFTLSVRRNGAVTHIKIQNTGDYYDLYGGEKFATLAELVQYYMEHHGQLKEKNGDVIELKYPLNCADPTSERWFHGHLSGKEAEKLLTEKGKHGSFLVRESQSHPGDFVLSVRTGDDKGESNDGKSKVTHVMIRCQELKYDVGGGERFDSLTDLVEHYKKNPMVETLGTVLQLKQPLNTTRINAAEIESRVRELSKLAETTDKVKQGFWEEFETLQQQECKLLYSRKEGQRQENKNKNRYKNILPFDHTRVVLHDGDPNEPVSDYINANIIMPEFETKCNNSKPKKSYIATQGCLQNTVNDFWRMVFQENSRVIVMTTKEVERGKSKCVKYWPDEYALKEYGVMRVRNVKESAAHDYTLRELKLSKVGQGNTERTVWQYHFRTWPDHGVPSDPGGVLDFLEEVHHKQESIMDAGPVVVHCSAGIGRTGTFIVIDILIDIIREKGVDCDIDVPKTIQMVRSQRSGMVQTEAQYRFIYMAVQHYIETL
Protocol: The assay was performed as described in YP Chen et al, Nature (535) 2016. Assay volume of 20 μL/well was assembled in 384 well black polystyrene low-binding microplates (Greiner), using the following buffer: 60 mM HEPES pH 7.2, 75 mM NaCl, 75 mM KCl, 1 mM EDTA pH 8, 0.05% tween-20, 5 mM DTT. The SHP-2 enzyme (synthetized by Origene, Met1-Leu525, cat #TP750155) was used at a final concentration of 0.5 nM. The enzyme was activated by 500 nM IRS1 peptide (sequence: H2N-LN(pY)IDLDLV(dPEG8)LST(pY)ASINFQK-amide; Wang et al., iScience 25,104009, Apr. 15, 2022, https://doi.org/10.1016/j.isci.2022.104009) and incubated with 75 μM DiFMUP (Sigma) as substrate.
Briefly, DMSO serially diluted testing compounds were transferred to the bottom of the assay plate. SHP2 was then added together with the IRS1 peptide 30 min post incubation, the DiFMUP substrate was added to the reaction and incubated 30 min at rt. Finally 5 μL of 160 μM bpV (potassium bisperoxo[1,10-phenanthroline]oxovanadate [V], Sigma) were added to stop and quench the reaction. The fluorescence was detected by a microplate reader (Envision, PerkinElmer) according to the DiFMUP excitation and emission wavelength. The lower the fluorescence the higher the SHP2 inhibition.
The activity of each compound dilution was calculated as percentage of inhibition between vehicle (DMSO, 0% inhibition) and no enzyme (100% inhibition). The percentage inhibition is fitted against the compound dilutions with a four-parameter logistic regression. The inflection point (i.e. the concentration at which half-maximal inhibition is achieved) is the IC50.
Legend: A indicates IC50 less or equal to 0.05 μM; B indicates IC50 greater than 0.05 μM and lower or equal to 0.3 μM.

[2] = tested on: phospho-ERK1/2 (Thr202/Tyr204); assay: Phospho-ERK cellular assay; assay type: cell-based; settings: Homo sapiens; KYSE-520 cells, 2 h at 37° C, TR-FRET; read-out: pERK IC50
Protocol: ERK phosphorylation was detected using the “Advanced phospho-ERK1/2 (Thr202/Tyr204)” TR-FRET kit (Cisbio, Cat #64AERPEG/H), following the manufacturer reagents and instructions.
Briefly, 20.000/well KYSE-520 cells (DSMZ ACC 371) were plated in 6 μL RPMI-1640 (Invitrogen) growth medium, into 384 white low-volume high base TC microplates (Greiner). After an overnight incubation, cells were treated with DMSO serial diluted compounds and incubated for 2 h at 37° C. After incubation, 2 μL/well of 4×Lysis Buffer (Cisbio 64KL1FDF), were added and incubated with cells for 30 min on gentle shaking. Finally, lysates were added with 2 μL/well of Eu cryptate (donor) and D2 (acceptor) conjugated antibodies (as provided by the Cisbio kit #64AERPEG/H) diluted 1:100 in Detection Buffer (as provided by the Cisbio kit #64AERPEG/H). Plates were then sealed and incubated at rt in the dark. After an overnight incubation, the TR-FRET signal was detected on a suitable reader (Envision, PerkinElmer).
The lower the TR-FRET signal the higher the higher the SHP2 inhibition in cells.
The activity of each compound dilution was calculated as percentage between vehicle DMSO treated cells and no cells, 0% inhibition and 100% inhibition respectively. The percentage activity is fitted against the compound dilutions with a four-parameter logistic regression. The inflection point (i.e. the concentration at which half-maximal inhibition is achieved) is the IC50.
Legend: “+” indicates IC50 equal or higher than 0.5 μM; “++” indicates IC50 less than 0.5 μM and higher or equal to 0.1 μM; “+++” indicates IC50 less than 0.1 μM.

Compound	IC50 [1] [nM]	IC50 [2] [nM]
Cc1nc(N2CCC3(CC2)Cn2ncc(F)c2[C@H]3N)cc(=O)n1-c1cccc(Cl)c1Cl (atropisomer, axis not shown) [Example 1, (S)-6-(4′-amino-3′-fluoro-4′H,6′H-spiro[piperidine-4,5′-pyrrolo[1,2-b]pyrazol]-1-yl)-3-(2,3-dichlorophenyl)-2-methylpyrimidin-4(3H)-one]	≤ 50	100 to 500
Cc1nc(N2CCC3(CC2)Cn2nccc2[C@H]3N)cnc1Sc1ccnc(C)c1F [Example 4, (S)-1-(5-((3-fluoro-2-methylpyridin-4-yl)thio)-6-methylpyrazin-2-yl)-4′H,6′H-spiro[piperidine-4,5′-pyrrolo[1,2-b]pyrazol]-4′-amine]	≤ 50	100 to 500
Cn1c(N2CCC3(CC2)Cn2nccc2[C@H]3N)ncc(-c2cccc(F)c2F)c1=O [Example 5, (S)-2-(4′-amino-4′H,6′H-spiro[piperidine-4,5′-pyrrolo[1,2-b]pyrazol]-1-yl)-5-(2,3-difluorophenyl)-3-methylpyrimidin-4(3H)-one]	50 to 300	> 500
Cc1nc(N2CCC3(CC2)Cn2nccc2[C@H]3N)cnc1Sc1cccc(Cl)c1Cl [Example 6, (S)-1-(5-((2,3-dichlorophenyl)thio)-6-methylpyrazin-2-yl)-4′H,6′H-spiro[piperidine-4,5′-pyrrolo[1,2-b]pyrazol]-4′-amine]	≤ 50	100 to 500
N[C@@H]1c2ccnn2CC12CCN(c1cnc(Oc3ccc(F)cc3)cn1)CC2 [Example 7, (S)-1-(5-(4-fluorophenoxy)pyrazin-2-yl)-4′H,6′H-spiro[piperidine-4,5′-pyrrolo[1,2-b]pyrazol]-4′-amine]	≤ 50	< 100
N[C@@H]1c2ccnn2CC12CCN(c1cnc3nc(-c4cccc(F)c4F)ccc3n1)CC2 [Example 8, (S)-1-(6-(2,3-difluorophenyl)pyrido[2,3-b]pyrazin-2-yl)-4′H,6′H-spiro[piperidine-4,5′-pyrrolo[1,2-b]pyrazol]-4′-amine]	≤ 50	> 500
N[C@@H]1c2ccnn2CC12CCN(c1cnc3nc(-c4cccc(Cl)c4Cl)ccc3n1)CC2 [Example 9, (S)-1-(6-(2,3-dichlorophenyl)pyrido[2,3-b]pyrazin-2-yl)-4′H,6′H-spiro[piperidine-4,5′-pyrrolo[1,2-b]pyrazol]-4′-amine]	≤ 50	> 500
Cn1c(N2CCC3(CC2)Cn2nccc2[C@H]3N)ccc(-c2cccc(Cl)c2Cl)c1=O [Example 11, (S)-6-(4′-amino-4′H,6′H-spiro[piperidine-4,5′-pyrrolo[1,2-b]pyrazol]-1-yl)-3-(2,3-dichlorophenyl)-1-methylpyridin-2(1H)-one]	50 to 300	> 500
Cc1cccc(-c2ncc3c(N4CCC5(CC4)Cn4nccc4[C@H]5N)nccn23)c1F [Example 12, (S)-1-(3-(2-fluoro-3-methylphenyl)imidazo[1,5-a]pyrazin-8-yl)-4′H,6′H-spiro[piperidine-4,5′-pyrrolo[1,2-b]pyrazol]-4′-amine]	≤ 50	100 to 500
N[C@@H]1c2ccnn2CC12CCN(c1cnc(Sc3ccc(F)cc3)cn1)CC2 [Example 13, (S)-1-(5-((4-fluorophenyl)thio)pyrazin-2-yl)-4′H,6′H-spiro[piperidine-4,5′-pyrrolo[1,2-b]pyrazol]-4′-amine]	≤ 50	< 100
N[C@@H]1c2ccnn2CC12CCN(c1nccn3c(-c4cccc(F)c4Cl)ncc13)CC2 [Example 14, (S)-1-(3-(2-chloro-3-fluorophenyl)imidazo[1,5-a]pyrazin-8-yl)-4′H,6′H-spiro[piperidine-4,5′-pyrrolo[1,2-b]pyrazol]-4′-amine]	≤ 50	100 to 500
Cc1c(Cl)cccc1-c1ncc2c(N3CCC4(CC3)Cn3nccc3[C@H]4N)nccn12 [Example 15, (S)-1-(3-(3-chloro-2-methylphenyl)imidazo[1,5-a]pyrazin-8-yl)-4′H,6′H-spiro[piperidine-4,5′-pyrrolo[1,2-b]pyrazol]-4′-amine]	≤ 50	> 500
Cc1ccc(F)c(-c2ncc3c(N4CCC5(CC4)Cn4nccc4[C@H]5N)nccn23)c1Cl [Example 16, (S)-1-(3-(2-chloro-6-fluoro-3-methylphenyl)imidazo[1,5-a]pyrazin-8-yl)-4′H,6′H-spiro[piperidine-4,5′-pyrrolo[1,2-b]pyrazol]-4′-amine]	50 to 300	> 500
Cc1nc(Sc2cccc(Cl)c2Cl)cnc1N1CCC2(CC1)Cn1nccc1[C@H]2N [Example 17, (S)-1-(5-((2,3-dichlorophenyl)thio)-3-methylpyrazin-2-yl)-4′H,6′H-spiro[piperidine-4,5′-pyrrolo[1,2-b]pyrazol]-4′-amine]	≤ 50	100 to 500
N[C@@H]1c2ccnn2CC12CCN(c1cnc(Sc3ccc(OC(F)(F)F)cc3)cn1)CC2 [Example 18, (S)-1-(5-((4-(trifluoromethoxy)phenyl)thio)pyrazin-2-yl)-4′H,6′H-spiro[piperidine-4,5′-pyrrolo[1,2-b]pyrazol]-4′-amine]	≤ 50	100 to 500
N[C@@H]1c2ccnn2CC12CCN(c1cnc(Sc3ccc(C(F)(F)F)cc3)cn1)CC2 [Example 19, (S)-1-(5-((4-(trifluoromethyl)phenyl)thio)pyrazin-2-yl)-4′H,6′H-spiro[piperidine-4,5′-pyrrolo[1,2-b]pyrazol]-4′-amine]	≤ 50	100 to 500
N[C@@H]1c2ccnn2CC12CCN(c1cnc(Sc3cccc(Cl)c3)cn1)CC2 [Example 20, (S)-1-(5-((3-chlorophenyl)thio)pyrazin-2-yl)-4′H,6′H-spiro[piperidine-4,5′-pyrrolo[1,2-b]pyrazol]-4′-amine]	≤ 50	< 100
N[C@@H]1c2ccnn2CC12CCN(c1cnc(Sc3ccc(Cl)cc3Cl)cn1)CC2 [Example 22, (S)-1-(5-((2,4-dichlorophenyl)thio)pyrazin-2-yl)-4′H,6′H-spiro[piperidine-4,5′-pyrrolo[1,2-b]pyrazol]-4′-amine]	≤ 50	< 100
N[C@@H]1c2ccnn2CC12CCN(c1cnc(Sc3ccc(Cl)c(Cl)c3)cn1)CC2 [Example 23, (S)-1-(5-((3,4-dichlorophenyl)thio)pyrazin-2-yl)-4′H,6′H-spiro[piperidine-4,5′-pyrrolo[1,2-b]pyrazol]-4′-amine]	≤ 50	100 to 500
N[C@@H]1c2ccnn2CC12CCN(c1cnc(Sc3ccccc3)cn1)CC2 [Example 24, (S)-1-(5-(phenylthio)pyrazin-2-yl)-4′H,6′H-spiro[piperidine-4,5′-pyrrolo[1,2-b]pyrazol]-4′-amine]	≤ 50	< 100
